What is called logD is lipophilicity at a set pH, counting ionised and neutral species. Lower therefore signals lower lipophilicity. One may read the chromatographic logD as a lipophilicity value derived from retention on a column.

Structures are written as SMILES. Several values for one entry are separate records, joined by “and”; a condition that tells them apart may be missing. Equal values may be shown once. Read-outs that look alike come from different tables or passages of the source.

The target of data set [1] is T1, beta-catenin/TCF4 engagement (Homo sapiens, UniProt P35222).
T1 construct: expressed in transfected cells; host or cells: HEK293
T1 sequence (P35222 1-781): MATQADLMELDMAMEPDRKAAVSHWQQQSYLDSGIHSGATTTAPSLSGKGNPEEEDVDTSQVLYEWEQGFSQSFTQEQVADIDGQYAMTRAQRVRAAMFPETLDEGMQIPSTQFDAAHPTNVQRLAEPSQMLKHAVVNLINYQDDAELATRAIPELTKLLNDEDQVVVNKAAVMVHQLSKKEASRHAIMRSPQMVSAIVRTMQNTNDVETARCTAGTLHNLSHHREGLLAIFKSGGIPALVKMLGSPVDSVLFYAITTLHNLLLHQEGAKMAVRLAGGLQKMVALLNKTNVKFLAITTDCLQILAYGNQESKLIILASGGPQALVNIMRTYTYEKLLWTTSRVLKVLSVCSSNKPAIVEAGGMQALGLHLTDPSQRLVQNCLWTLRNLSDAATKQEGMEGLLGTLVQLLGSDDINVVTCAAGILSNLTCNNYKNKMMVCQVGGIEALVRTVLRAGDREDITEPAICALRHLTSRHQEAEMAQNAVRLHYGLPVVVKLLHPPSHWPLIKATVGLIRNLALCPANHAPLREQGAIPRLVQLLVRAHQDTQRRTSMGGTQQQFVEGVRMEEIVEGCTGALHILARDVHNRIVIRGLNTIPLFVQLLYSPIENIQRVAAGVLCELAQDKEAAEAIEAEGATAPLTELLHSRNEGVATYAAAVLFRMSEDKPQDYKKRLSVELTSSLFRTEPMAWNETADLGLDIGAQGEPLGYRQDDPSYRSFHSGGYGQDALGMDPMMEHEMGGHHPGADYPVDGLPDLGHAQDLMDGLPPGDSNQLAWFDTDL
Nature of the data set: Nano-BRET target engagement assay (B-cat-Halo & TCF4-Luc in HEK293 cells). Type of data set: cell-based.

Data set [2] is described as follows: CHI Log D procedure. It counts as physicochemical. As to conditions: for CHI Log D / logD: pH 7.4; for chromatographic logD: pH 7.4, CHI Log D.
Data set [3] concerns the target T2, full-length beta-Catenin (Uniprot ID P35222) (Homo sapiens, UniProt P35222).
T2 construct: 10 nM full-length beta-Catenin (Uniprot ID P35222)
T2 sequence (P35222 1-781): T1 sequence (P35222 1-781)
Nature of the data set: Fluorescence polarization IC50 (beta-catenin / 5FAM-TCF4 10-53 competition). Type of data set: binding. (In fluorescence polarisation assays a small probe gives low polarisation when free and higher when bound to something large.)

The test system of data set [4] is TCF/LEF luciferase Reporter in DLD1 cells. The data set is described as follows: TCF reporter assay (DLD1 TCF/LEF luciferase reporter, Bright-Glo). It counts as cell-based. As to conditions: for DLD1 TCF c2 BrightGlo % Inhibition: replicates. The procedure, abridged:
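DLD1 cells stably carrying a TCF/LEF luciferase reporter were plated at 5000 cells/well in RPMI + 4% FBS and treated overnight with a 1:2 compound dilution series. Bright-Glo luminescence read on day 3; viability by CellTiter-Glo. Absolute IC50 determined.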

The mark [5] stands for this setting: Abs IC50, read-out: DLD1 reporter assay Abs IC50.
The mark [6] stands for this setting: read-out: DLD1 4% Abs IC50, DLD1 4%.
Where [7] appears, read: absolute IC50, read-out: NanoBRET Abs IC50.
Setting [8] is: fluorescence polarization, read-out: beta-Catenin FP IC50.
The mark [9] stands for this setting: read-out: DLD1 4% Abs IC50, DLD1 reporter, 4%, absolute IC50.

Regarding `CC(=O)N1CCC[C@]12CC=CCCCC1(CCCC=CCCCOC(=O)N3CC[C@@](C(=O)N[C@@H](Cc4ccsc4)C(=O)N[C@@H](Cc4csc5ccccc45)C(=O)N[C@@H](CCC(N)=O)C(N)=O)(C3)NC(=O)[C@H](CC(N)=O)NC(=O)[C@H](Cc3ccccc3)NC(=O)[C@H](C)NC(=O)[C@H](C)NC(=O)[C@H](CN(CC(=O)O)CC(F)(F)F)NC(=O)[C@H](CC(=O)O)NC1=O)NC(=O)[C@H](CC(C)(C)C)NC(=O)[C@H](CC(=O)O)NC2=O` (single isomer, unassigned) [I-762, Ac-PL3-Asp-Npg-B5-Asp-TfeGA-Ala-Ala-Phe-Asn-PyrS2-3Thi-BztA-Gln-NH2], the IC50 in data set [1] (Abs IC50, read-out: NanoBRET Abs IC50) was 10000 nM; in data set [1] (Peptide + ST-Protein (SAINT-Protein lipid), read-out: Nano-BRET Abs IC50), 700 nM; in data set [1] (Peptide only, read-out: Nano-BRET Abs IC50), 11000 nM; in data set [1] (read-out: NanoBRET Abs IC50), 14000 nM; in data set [3] (read-out: FP EC50), 6 nM; in data set [3] (read-out: bCat FP IC50), 6 nM. Moreover, the IC50 came to 5 nM in data set [3] (read-out: beta-Catenin FP IC50); 6000 nM in data set [4] (setting [5]); 300 nM in data set [4] (Peptide + ST-Protein (SAINT-Protein lipid), read-out: TCF Reporter Assay Abs IC50); 7000 nM in data set [4] (Peptide only, read-out: TCF Reporter Assay Abs IC50); 7900 nM in data set [4] (setting [6]). The “CHI Log D” value in data set [2] stood at 2.247. The same compound gave a logD in data set [2] of 2.2. The “DLD1 TCF c2 BrightGlo % Inhibition” value in data set [4] (first dose = 20 uM (plate map), 20 µM) was 75.7% and 81.9% and 78.7%; in data set [4] (0.625 µM), 14.5% and 18.6% and 9.3%; in data set [4] (1.25 µM), 12.9% and 16.9% and 5.5%; in data set [4] (2.5 µM), 12.9% and 17.4% and 11.9%; in data set [4] (10 µM), 56.8% and 70.2% and 65.6%; in data set [4] (third dose = 5 uM (plate map), 5 µM), 28.2% and 45.2% and 44.6%.

Take `CC(=O)N1CCC[C@]12CC=CCCCC1(CCCC=CCCCOC(=O)N3CC[C@@](C(=O)N[C@@H](Cc4ccsc4)C(=O)N[C@@H](Cc4csc5ccccc45)C(=O)N[C@@H](CCC(N)=O)C(N)=O)(C3)NC(=O)[C@H](CC(N)=O)NC(=O)[C@H](Cc3ccccc3)NC(=O)[C@H](C)NC(=O)[C@H](C)NC(=O)[C@H](CC(=O)O)NC(=O)[C@H](CC(=O)O)NC1=O)NC(=O)[C@H](CC(C)(C)C)NC(=O)[C@H](CC(=O)O)NC2=O` (stereo partly drawn) [I-686, Ac-PL3-Asp-Npg-B5-Asp-Asp-Ala-Ala-Phe-Asn-PyrS2-3Thi-BztA-Gln-NH2]: in data set [2], the “CHI Log D” value was found to be 1.997 and the logD is 2.0. Besides, in data set [4] (setting [5]), the IC50 came to 5600 nM.

Consider `CC(=O)N1CCC[C@]12CC=CCCCC1(CCCC=CCCCOC(=O)N3CC[C@@](C(=O)N[C@@H](Cc4ccsc4)C(=O)N[C@@H](Cc4csc5ccccc45)C(=O)N[C@@H](CCC(N)=O)C(N)=O)(C3)NC(=O)[C@H](Cc3ccccc3)NC(=O)[C@H](Cc3ccccc3)NC(=O)[C@H](C)NC(=O)[C@H](C)NC(=O)[C@H](Cc3cccc(C(=O)O)c3)NC(=O)[C@H](CC(=O)O)NC1=O)NC(=O)[C@H](CC(C)(C)C)NC(=O)[C@H](CC(=O)O)NC2=O` (stereo partly drawn) [I-852, Ac-PL3-Asp-Npg-B5-Asp-3COOHF-Ala-Ala-Phe-Phe-PyrS2-3Thi-BztA-Gln-NH2], for which the IC50 in data set [1] (setting [7]) amounted to 2800 nM; in data set [3] (read-out: beta-Catenin FP IC50) it was 7 nM; in data set [4] (setting [6]), 1400 nM. This compound yielded a chromatographic logD in data set [2] of 2.4.

For the compound `CC(=O)N1CCC[C@]12CC=CCCCC1(CCCC=CCCCOC(=O)N3CC[C@@](C(=O)N[C@@H](Cc4ccccc4Br)C(=O)N[C@@H](Cc4csc5ccccc45)C(=O)N[C@@H](CCC(N)=O)C(N)=O)(C3)NC(=O)[C@H](CC(N)=O)NC(=O)[C@H](Cc3ccccc3)NC(=O)[C@H](C)NC(=O)[C@H](C)NC(=O)[C@H](CN(CC(=O)O)CC(F)(F)F)NC(=O)[C@H](CC(=O)O)NC1=O)NC(=O)[C@H](CC(C)(C)C)NC(=O)[C@H](CC(=O)O)NC2=O` (stereo partly drawn) [I-924, Ac-PL3-Asp-Npg-B5-Asp-TfeGA-Ala-Ala-Phe-Asn-PyrS2-2BrF-BztA-Gln-NH2], the IC50 in data set [1] (setting [7]) amounted to 3300 nM; in data set [3] (read-out: beta-Catenin FP IC50), 7 nM; in data set [4] (absolute IC50, read-out: DLD1 reporter assay Abs IC50), 4500 nM. This compound also had a chromatographic logD in data set [2] of 2.28.

Turning to `CC(=O)N1CCC[C@]12CC=CCCCC1(CCCC=CCCCOC(=O)N3CC[C@@](C(=O)N[C@@H](Cc4ccsc4)C(=O)N[C@@H](Cc4csc5ccccc45)C(=O)N[C@@H](CCC(N)=O)C(N)=O)(C3)NC(=O)[C@H](CC(C)C)NC(=O)[C@H](Cc3ccccc3)NC(=O)[C@H](C)NC(=O)[C@H](C)NC(=O)[C@H](Cn3cc(C4(C(=O)O)CC4)nn3)NC(=O)[C@H](CC(=O)O)NC1=O)NC(=O)[C@H](CC(C)(C)C)NC(=O)[C@H](CC(=O)O)NC2=O` (stereo partly drawn) [I-2445, Ac-PL3-Asp-Npg-B5-Asp-[CCpCO2H]TriAzDap-Ala-Ala-Phe-Leu-PyrS2-3Thi-BztA-Gln-NH2], the IC50 in data set [1] (setting [7]) turned out to be 17100 nM; in data set [3] (setting [8]) it was 5 nM; in data set [4] (setting [9]), 9500 nM.

For the compound `CC(=O)N1CCC[C@]12CC=CCCCC1(CCCC=CCCCOC(=O)N3CC[C@@](C(=O)N[C@@H](Cc4ccsc4)C(=O)N[C@@H](Cc4csc5ccccc45)C(=O)N[C@@H](CCC(=O)N(C)C)C(=O)N[C@@H](C)C(N)=O)(C3)NC(=O)[C@H](CC(C)C)NC(=O)[C@H](Cc3ccccc3)NC(=O)[C@H](C)NC(=O)[C@H](C)NC(=O)[C@H](CN(CC(=O)O)CC(F)(F)F)NC(=O)[C@H](CC(=O)O)NC1=O)NC(=O)[C@H](CC(C)(C)C)NC(=O)[C@H](CC(=O)O)NC2=O` (stereo partly drawn) [I-2467, Ac-PL3-Asp-Npg-B5-Asp-TfeGA-Ala-Ala-Phe-Leu-PyrS2-3Thi-BztA-Me2Gln-Ala-NH2], the results for the IC50 in data set [1] (setting [7]), in data set [3] (setting [8]) and in data set [4] (setting [9]) were 2500 nM, 10 nM and 1400 nM, respectively.

In the case of `CC(=O)N1CCC[C@]12CC=CCCCC1(CCCC=CCCCOC(=O)N3CC[C@@](C(=O)N[C@@H](Cc4ccccc4C(F)(F)F)C(=O)N[C@@H](Cc4csc5ccccc45)C(=O)N[C@@H](C)C(N)=O)(C3)NC(=O)[C@H](CC(C)C)NC(=O)[C@H](Cc3ccccc3)NC(=O)[C@H](C)NC(=O)[C@H](CCC(N)=O)NC(=O)[C@H](Cn3cc(CC4(C(=O)O)CCCCC4)nn3)NC(=O)[C@H](CC(=O)O)NC1=O)NC(=O)[C@H](CC(C)(C)C)NC(=O)[C@H](CC(=O)O)NC2=O` (stereo partly drawn) [I-2520, Ac-PL3-Asp-Npg-B5-Asp-[CH2CChCO2H]TriAzDap-Gln-Ala-Phe-Leu-PyrS2-2F3MeF-BztA-Ala-NH2], the IC50 worked out at 5900 nM in data set [1] (setting [7]), 27 nM in data set [3] (setting [8]) and 5700 nM in data set [4] (setting [9]).

Regarding `CC(=O)N1CCC[C@]12CC=CCCCC1(CCCC=CCCCOC(=O)N3CC[C@@](C(=O)N[C@@H](Cc4ccccc4C(F)(F)F)C(=O)N[C@@H](Cc4csc5ccccc45)C(=O)N[C@@H](CO)C(N)=O)(C3)NC(=O)[C@H](CC(C)C)NC(=O)[C@H](Cc3ccccc3)NC(=O)[C@H](C)NC(=O)[C@H](C)NC(=O)[C@H](Cn3cc(CC4(C(=O)O)CCCCC4)nn3)NC(=O)[C@H](CC(=O)O)NC1=O)NC(=O)[C@H](CC(C)(C)C)NC(=O)[C@H](CC(=O)O)NC2=O` (stereo partly drawn) [I-2521, Ac-PL3-Asp-Npg-B5-Asp-[CH2CChCO2H]TriAzDap-Ala-Ala-Phe-Leu-PyrS2-2F3MeF-BztA-Ser-NH2], the results for the IC50 in data set [1] (setting [7]), in data set [3] (setting [8]) and in data set [4] (setting [9]) were 5600 nM, 38 nM and 3000 nM, respectively.
